Measurements: patent US10822325B2, “Human GLUT5 specific inhibitors and methods of treatment” (UNM RAINFOREST INNOVATIONS, priority 2015, dated 2020)
“Also recorded” adds a separate entry of the source.

Target: T1, human GLUT5 (Homo sapiens, UniProt P22732)
T1 construct: Full length DNA was subcloned into pFastBac1 (Life Technologies) vector with a N-terminal hexahistidine tag; hexahistidine (N); made in house; host or cells: Sf21 insect cells (baculovirus, pFastBac1)
T1 sequence (P22732 1-501): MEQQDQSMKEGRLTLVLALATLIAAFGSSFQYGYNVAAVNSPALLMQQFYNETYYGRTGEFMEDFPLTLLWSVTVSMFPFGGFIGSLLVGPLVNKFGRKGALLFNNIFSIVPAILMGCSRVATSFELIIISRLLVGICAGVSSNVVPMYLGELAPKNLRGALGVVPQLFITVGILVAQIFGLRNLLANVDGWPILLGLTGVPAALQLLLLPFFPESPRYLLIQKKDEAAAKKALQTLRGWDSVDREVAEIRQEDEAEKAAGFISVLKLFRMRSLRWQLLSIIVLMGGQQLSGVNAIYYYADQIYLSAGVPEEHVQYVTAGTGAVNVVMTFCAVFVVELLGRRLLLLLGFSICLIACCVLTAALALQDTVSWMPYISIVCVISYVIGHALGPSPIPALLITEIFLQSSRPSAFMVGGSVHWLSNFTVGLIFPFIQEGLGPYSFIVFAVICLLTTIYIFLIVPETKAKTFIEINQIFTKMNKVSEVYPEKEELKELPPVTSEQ
Assay: Fructose entrance counter-flow transport in GLUT5 proteoliposomes
Assay type: biochemical
Details: for effect on GLUT5 fructose transport: 2 mM compound, one minute
Description: cDNAs of GLUT1, 3, 4 and 5 were purchased from Open Biosystems (GE Healthcare). cDNAs of GLUT2 was a gift from Prof. Graeme Bell at University of Chicago. Full length DNA was subcloned into pFastBac1 (Life Technologies) vector with a N-terminal hexahistidine tag. Bacmids were generated in DH10Bac E. coli cells (Life Technologies). Baculoviruses were produced using Cellfectin II Reagent and amplified in Sf21 insect cells (Life Technologies). Cells were maintained at 26° C., and P1 (10^6 pfu/mL) was collected from infected cells after 72 hours. SF21 cells were propagated in HyClone SFX-Insect media (GE Healthcare), supplemented with 5% fetal bovine serum (Biowest), 4.8 mM glutamine, antibiotics (100 units/mL Penicillin G and 100 μg/mL streptomycin sulfate) and amphotericin B (2.5 μg/mL). For recombinant protein expression, SF21 cells in suspension culture at 2×10^6 cells/ml were infected with P3 viral stock (10^8 pfu/mL), at an MOI of 1.0 pfu/cell. Four days after viral infection, cells from 1 L culture were collected by centrifugation at 2,000 g and 25 °C. The cell pellet was resuspended in 120 mL of 50 mM sodium phosphate (NaPi) (pH 7.5), 5% (v/v) glycerol, 200 mM sodium chloride (buffer A), with protease inhibitors (1 mM AEBSF, 10 μM E-64, 10 μM pepstatin A, 1 μM Aprotinin, 20 μM Bestatin, 20 μM Leupeptin), at 4° C., and disrupted by sonication (Branson Ultrasonic). n-Dodecyl-β-D-maltopyranoside (DDM, EMD chemicals) was added to a final concentration of 1% (w/v) in the broken cell solution, and the mixture was incubated at 4° C. with stirring, for 4 hours. The solubilized protein solution was clarified by ultracentrifugation at 200,000 g and 4° C. for 1 hour, and the supernatant was loaded onto the Ni-NTA resin (Novagen) and washed with buffer containing 50 mM NaPi (pH 7.5), 500 mM NaCl, 5-20 mM imidazole, 5% (v/v) glycerol and 0.05% (w/v) DDM. GLUT1 (or GLUT2-5, wild-type or mutants) was eluted with buffer A, containing 300 mM imidazole and 0.05% DDM (w/v). To generate DNA for mutant proteins, site-directed mutagenesis was performed on the pFastBac1 plasmid constructs of wild-type proteins and verified by DNA sequencing^37. Mutant proteins were expressed and purified in the same manner as wild-type proteins with no modifications.
Proteoliposomes were generated according to the protocol of^16,38 with minor modifications. Liposomes were made from a 95%/5% mix of soy phosphatidylcholine and cholesterol (Avanti Polar Lipids). Prepared liposomes were destabilized with 4 mM Triton X-100 and mixed with purified protein in a 100:1 (w/w) ratio in 100 mM KPi (pH 7.5), 20% (v/v) glycerol, 200 mM glucose for GLUT1-4 and GLUT1F379H or fructose for GLUT5 (wild-type and H387F mutant) and GLUT2. Detergent was removed by several additions of SM2 BioBeads (BioRad) and incubated overnight at 4° C. […]
For the entrance counterflow transport in proteoliposomes, the assay was started by the addition of 5 μL proteoliposomes solution (OD600 nm ˜30) to 200 μL, assay solution, containing 10 μM ^14C-radiolabeled glucose (for GLUT1 wild-type or F379H mutant and GLUT2-4) or fructose (for GLUT5 wild-type or H387F mutant and GLUT2) (Moravek Biochemicals) in 100 mM KPi buffer at pH 7.5. After one minute (or different specified time points when the time-dependent counter-flow transport activity was measured), the transport was stopped with ice-chilled quench buffer [0.1 M KPi (pH 5.5) and 0.1 M lithium chloride]. […]

| SMILES | effect on GLUT5 fructose transport (proteoliposomes) | inhibitory activity against GLUT5 in screen of 175 purchased compounds (1 mM compound, fructose transport in proteoliposomes) | IC50 (proteoliposomes, 10 μM C14-fructose, measured one minute after transport initiation, read-out: IC50 of inhibition of GLUT5 fructose transport) |
| --- | --- | --- | --- |
| O=C(CCc1ccc(O)cc1)c1c(O)cc(O)cc1O [phloretin, reference compound] | did not alter |  |  |
| CS(=O)(=O)c1ccc(Nc2ccc3c(c2)OCO3)c([N+](=O)[O-])c1 [MSNBA, N-[4-(methylsulfonyl)-2-nitrophenyl]-1,3-benzodioxol-5-amine] | completely abolished | inhibitor of GLUT5; also recorded: inhibitory activity | 100 ± 30 µM |
| C=C1[C@@H](C)[C@H]2[C@H](Cc3ccccc3)NC(=O)[C@]23OC(=O)/C=C/[C@H](O)CCC[C@@H](C)C/C=C/[C@H]3[C@@H]1O [cytochalasin B, reference compound] | did not alter |  |  |
